Source: paper PMC4067149 (Biochemistry, 2014)

Molecular target: T1, DEBS AT3 (Saccharopolyspora erythraea, UniProt Q03132)
T1 sequence (Q03132 460-880 limits assumed): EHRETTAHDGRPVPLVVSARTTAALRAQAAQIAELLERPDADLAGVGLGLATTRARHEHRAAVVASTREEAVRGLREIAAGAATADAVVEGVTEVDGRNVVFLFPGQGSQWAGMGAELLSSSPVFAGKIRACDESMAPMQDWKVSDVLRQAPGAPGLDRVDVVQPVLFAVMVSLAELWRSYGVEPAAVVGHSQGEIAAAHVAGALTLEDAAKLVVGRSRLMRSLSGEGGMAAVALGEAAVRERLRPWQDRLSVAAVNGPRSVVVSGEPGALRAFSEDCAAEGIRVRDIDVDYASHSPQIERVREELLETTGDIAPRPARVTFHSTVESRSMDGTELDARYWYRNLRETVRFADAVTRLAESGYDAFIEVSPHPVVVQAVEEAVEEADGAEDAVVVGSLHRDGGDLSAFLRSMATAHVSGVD
Assay: alpha-KGDH coupled fluorometric NADH assay, hydrolysis
Type: biochemical
Details: no ACP, pH 7.6, 10% glycerol

CC(C(=O)O)C(=O)SCCNC(=O)CCNC(=O)[C@H](O)C(C)(C)COP(=O)(O)OP(=O)(O)OC[C@H]1O[C@@H](n2cnc3c(N)ncnc32)[C@H](O)[C@@H]1OP(=O)(O)O (stereo partly shown) [MMCoA, methylmalonyl-CoA]
alpha-KGDH coupled fluorometric NADH assay, hydrolysis: DEBS AT3 showed the highest rate of hydrolysis with its natural substrate, methylmalonyl-CoA
